Measured values: patent US8093028B2, “Engineered glycosyltransferases with expanded substrate specificity” (Wisconsin Alumni Research Foundation, priority 2007, dated 2012)

Target: T1, OleD P67T/S132F/A242V (Streptomyces antibioticus, UniProt Q53685, A242V/P67T/S132F)
T1 construct: made in house; host or cells: E. coli (site-directed mutant of pET28/OleD)
Format: biochemical
Procedure: Kinetic parameters kcat and Km were determined with both 4-Me-umb FIG. 1: 4 and UPDG as variable substrates using assay conditions as described above. […] Each experiment was performed in triplicate. Initial velocities were fitted to the Michaelis-Menten equation using Sigma Plot.
Enzyme assays were carried out in a total volume of 500 μl 50 mM Tris-HCl (pH 8.0) containing 5 mM MgCl2, and 50 μg pure enzyme. Kinetic parameters kcat and Km were determined with both 4-Me-umb FIG. 1: 4 and UPDG (FIG. 3: 2) as variable substrates. […] Each experiment was performed in triplicate. Initial velocities were fitted to the Michaelis-Menten equation using Sigma Plot.

T1 sequence (Q53685 other isoform, or with tags, fused parts or gaps P55A/P67T/R82V/R83E/T84P/S132F/A242V): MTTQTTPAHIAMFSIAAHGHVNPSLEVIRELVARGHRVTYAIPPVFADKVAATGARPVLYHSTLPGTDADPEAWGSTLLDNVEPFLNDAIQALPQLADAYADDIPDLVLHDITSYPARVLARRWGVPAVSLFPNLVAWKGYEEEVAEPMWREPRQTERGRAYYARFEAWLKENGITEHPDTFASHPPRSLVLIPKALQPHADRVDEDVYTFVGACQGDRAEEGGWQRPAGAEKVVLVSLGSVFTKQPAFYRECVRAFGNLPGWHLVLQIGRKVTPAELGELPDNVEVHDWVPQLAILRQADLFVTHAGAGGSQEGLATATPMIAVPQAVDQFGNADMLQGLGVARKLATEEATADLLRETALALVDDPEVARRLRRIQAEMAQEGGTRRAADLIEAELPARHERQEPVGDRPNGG

## Cc1cc(=O)oc2cc(O)ccc12 [4-Me-umb (4), 7-hydroxy-4-methylcoumarin]
Acceptor 4 varied
  kcat: 0.0247 s⁻¹
kcat/Km, unnatural acceptor 4-methyl-umbelliferone
  efficiency of glucosylation compared to the WT enzyme: ~60 fold
read-out: apparent Km, named substrate varied, other substrate fixed
  Km: 140 µM
